From patent US7476676B2, “Methods for increasing bone formation using inhibitors of glycogen synthase kinase-3β” (Roche Palo Alto LLC, priority 2002, dated 2009) come the findings set out here.

Data set [1] addresses T1, truncated form of recombinant rabbit GSK-3β enzyme (Oryctolagus cuniculus, UniProt G1T8E2).
T1 construct: The construct was cloned in pGEX-3X vector; fused on or other part: GST at the N-terminus (pGEX-3X vector, purified on glutathione sepharose 4B)
Briefly: Inhibition of Glycogen Synthase Kinase-3β in vitro assay. The class given is biochemical.
Description: The in vitro GSK-3β inhibitory activity of compounds of this invention was determined with a truncated form of recombinant rabbit GSK-3β enzyme.
The construct was cloned in pGEX-3X vector according to the procedure described in Wang, Q. M. et al., J. Biol. Chem. 269, 14566-14574 (1994). Ten amino acids at the N-terminus were deleted to obtain constitutively active GSK-3β ((see Murai H. et al., FEBS Lett. 392,153-60, (1996)). GSK-3β was expressed in BL21 DE3 cells. The cells were grown at 37° C. until they reached mid log phase and then induced with isopropyl-beta-(D)-thiogalactopyranoside (final concentration 0.4 mM) at 30° C. for 2 h. The cells were homogenized and the cell extract was loaded on a glutathione sepharose 4B column. GSK-3β was eluted with glutathione buffer (50 mM Tris pH 8 and 10 mM reduced glutathione). The eluate was collected in 3 minute fractions and assayed for GSK-3β content on a 10% SDS PAGE (polyacrylamide gel electrophoresis). Fractions above 20% peak height were pooled, aliquoted, and stored at −80° C. until used.
ATP (1 μCi), and 2 μl of compounds of this invention in DMSO (various concentrations). 15 μl of GSK-3β (various concentrations) was added and the reaction mixture was incubated at 30° C. for 1 h. The reaction was stopped by transferring 25 μl of the reaction mixture to a phosphocellulose plate containing 130 μl of 1.85% phosphoric acid. The free radionucleotides in the membrane were washed off under vacuum with 1.85% phosphoric acid (5 times). After the last wash, the plate was transferred to an adoptor plate and 50 μl of scintillation cocktail (Microscint-20, Packard, cat. #20-133) was added to each well and the amount of radioactivity was counted in a top counter.

For another data set, the system named is Male Wistar rats. As to the kind of experiment: Study MT021 - bone formation in rats with Compound II-9. The class given is in vivo, rat. Here is the method:
Compound was formulated as a solution in 10% w/v Solutol. Male Wistar rats were dosed by oral gavage, once per day for 14 days at 25, 75 or 150 mg/kg/day and compared to vehicle control (10% Solutol, 10 ml/kg/day). Complete necroscopies were done and the tissues preserved in 10% formalin. Femur, sternum and vertabra were processed and analyzed as described in Example 3.

The test system of a further data set is osteopenic rat model. As to the kind of experiment: Bone anabolism in the rat (osteopenic rat model; bone mineral density, serum and urine calcium). The class given is in vivo. Here is the method:
. Three month old rats are ovariectomized (Ovx) and administered either bovine parathyroid hormone (Amino Acids^1-34) (bPTH in Table) or one of the compounds of the present invention once a day by mouth starting at least 4 weeks post-ovariectomy and continuing until final sacrifice after 3 weeks of daily treatment. Control groups, both sham (rats that were not ovariectomized) and Ovx, received vehicle only. Bovine parathyroid hormone, bPTH, was tested at 40 ug/kg (optimal dose) as an internal positive control for anabolic activity. […] Blood and urine samples were collected at 2-3 weeks after initiation of treatment and the amount of calcium in the serum and urine was determined.
The bone mineral density of the right femur was determined using the High Resolution Software on a QDR-4500W Bone Densitometer™ (Hologic, Waltham, Mass.). The animals were scanned by placing them on a plexiglass block in a supine position such that the right leg was perpendicular to the main body and the tibia was perpendicular to the femur. The increase in the bone mineral density and the amount of calcium in the urine and the serum for the compounds are given in the table below.

For data set [2], the system named is Ovalbumin-sensitized Brown-Norway rats. Briefly: Study GSK8 - bone formation in rats treated with Compound II-3. The class given is in vivo, rat. As to conditions: twice daily oral gavage Days 6-8 and 13-23, liposome formulation. As for the experimental part: Ovalbumin-sensitized Brown-Norway rats were used. They were sensitized i.p. with 100 μg of OA (ovalbumin) in 0.2 ml alum once every week for three weeks (Day 0, 7 and 14). Seven days after the final sensitization (Day 21), rats were challenged with 1% OA for 45 minutes and euthanized 72 hrs later (day 24). Compound II-3 was given twice daily by oral gavage on Days 6-8 and Days 13-23. Compound was prepared as a liposome formulation—8 mg/ml liposome solution in a liposome composition of 1.44 grams of compound and 54 grams of L-alpha-phosphatidylcholine in 160 ml of sterile water for injection.
Femur samples were decalcified in 10% formic acid, embedded in paraffin, sectioned at five micron thickness and stained with hematoxylin and eosin.

Where [3] appears, read: Ovx rats, 30 mg/kg/day by mouth.
[4] abbreviates: Sham (intact) rats, 30 mg/kg/day by mouth.
[5] abbreviates: Ovx rats, 0.04 mg/kg/day, Compound X study.
Setting [6] is: Ovx rats, 0.04 mg/kg/day, III-2 Ovx study.
[7] abbreviates: Sham (intact) rats, 0.04 mg/kg/day.

Like-named read-outs stand apart in the source and are kept apart here.

T1 sequence (G1T8E2 1-432): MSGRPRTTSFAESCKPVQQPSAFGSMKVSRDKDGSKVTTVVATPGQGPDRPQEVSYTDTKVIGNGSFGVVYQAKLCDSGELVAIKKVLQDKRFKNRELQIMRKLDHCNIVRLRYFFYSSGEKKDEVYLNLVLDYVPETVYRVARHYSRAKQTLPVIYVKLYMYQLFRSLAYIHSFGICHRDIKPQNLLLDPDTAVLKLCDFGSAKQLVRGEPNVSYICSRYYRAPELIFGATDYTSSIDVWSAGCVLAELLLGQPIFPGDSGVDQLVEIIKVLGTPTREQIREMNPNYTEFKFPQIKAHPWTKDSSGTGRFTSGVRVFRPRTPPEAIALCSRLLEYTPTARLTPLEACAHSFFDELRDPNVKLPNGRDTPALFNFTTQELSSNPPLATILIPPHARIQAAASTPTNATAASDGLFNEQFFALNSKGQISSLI

Turning to `Cn1cc(C2=C(c3ccccc3OCC(O)CO)C(=O)NC2=O)c2ccccc21` (stereo not shown) [Compound I-1], the melting point (in general, the temperature, or range, at which the solid turns liquid) was 245 to 247.1 °C.
With `Nc1nc(NCCNc2ncc(-c3ncc[nH]3)c(-c3ccc(Cl)cc3Cl)n2)ccc1[N+](=O)[O-]` [Compound X, N^6-{2-[4-(2,4-dichloro-phenyl)-5-(1H-imidazol-2-yl)-pyrimidin-2-ylamino]-ethyl}-3-nitro-pyridine-2,6-diamine, reference compound], the half-maximal inhibitory concentration (IC50) – broadly, the point on the concentration scale where inhibition reaches its midpoint – in data set [1] (GSK-3β assay of Biological Example 1) amounted to 1.7 nM.
Consider `Cl.Cn1cc(C2=C(c3cccc(NCC(O)CO)c3)C(=O)NC2=O)c2ccccc21` (stereo not shown) [II-9], for which the melting point is 160 to 163.5 °C. Moreover, the IC50 in data set [1] turned out to be 1.5 nM. Further, the “animals with increased cancellous bone” value in the data set with Male Wistar rats (25 mg/kg group, oral, 14 days) was “only one animal”. Further, the “rats with increased new bone formation” value with Male Wistar rats (150 mg/kg group, oral, 14 days) is “Five out of six”. Also, the “cancellous bone (femur, sternum, vertebra)” value in the data set on Male Wistar rats (oral gavage once per day for 14 days at 25, 75 or 150 mg/kg/day) is “Increased cancellous bone was observed in all groups”.
Consider `Cl.Cn1cc(C2=C(c3cccc(NCC(O)CO)c3)C(=O)NC2=O)c2cc(F)ccc21` (stereo not shown) [III-2], for which, in the data set on osteopenic rat model (setting [3]), the “LUMBAR SPINE % 3 wk BMD Change” value was 7.9 ± 1.8% and the “WHOLE FEMUR % 3 wk BMD Change” value is reported as 11.6 ± 0.9%. In addition, in the data set with osteopenic rat model (setting [4]), the “LUMBAR SPINE % 3 wk BMD Change” value is on record as 9.5 ± 1.8% and the “WHOLE FEMUR % 3 wk BMD Change” value was found to be 13.1 ± 1.3%.
Take `Cn1cc(C2=C(c3cccc(NCCCO[Si](C)(C)C(C)(C)C)c3)C(=O)NC2=O)c2ccccc21`: the melting point lay in the range of 58 to 65 °C.
Take “bPTH: bovine parathyroid hormone (Amino Acids 1-34), internal positive control for anabolic activity”: the results for the “LUMBAR SPINE % 3 wk BMD Change” value in the data set with osteopenic rat model (setting [5]), in the data set on osteopenic rat model (setting [6]) and in the data set on osteopenic rat model (setting [7]) were 8.6 ± 1.8%, 12.2 ± 1.5% and 15.7 ± 0.8%, respectively. Also, the “WHOLE FEMUR % 3 wk BMD Change” value worked out at 7.0 ± 1.1% in the data set on osteopenic rat model (setting [5]), 16.6 ± 0.9% with osteopenic rat model (setting [6]) and 11.7 ± 1.0% in the data set with osteopenic rat model (setting [7]).
Molecule `Cn1cc(C2=C(c3cccc(OCCN4CCOCC4)c3)C(=O)NC2=O)c2ccccc21` [II-4] registered a melting point of 197.7 to 199 °C.
For `Cn1cc(C2=C(c3cccc(OC[C@H](O)CO)c3)C(=O)NC2=O)c2ccccc21` [II-3], the melting point is 177.7 to 178 °C. Also, the IC50 in data set [1] worked out at 3.2 nM. For the same molecule, in data set [2], the “cancellous bone under the growth plate of the femur (light microscopy)” value is reported as “moderate increases in cancellous bone”.
